Laboratory results published in patent US20240209353A1, “NADK2 INHIBITION IN CANCER AND FIBROTIC DISORDERS” (Memorial Sloan-Kettering Cancer Center, priority 2021, published 2024).
“And” between values parts separate entries of the source, which are not always exact repeats. Equal entries are not always repeated.

Tested on: DLD1-OMP25HA cells
Assay: LC-MS metabolomic profiling, whole cell samples
Format: cell-based, human
Settings: DLD1-OMP25HA sgCtrl + Piericidin 5 μM 2 hours, rep01-rep03
Description: Rapid immunopurification of mitochondria was performed following the published methodology (4). In brief, cells with control or NADK2 knockout were engineered to express the HA-tagged OMP25 protein (Addgene, 83356); or in the case of FIG. 5E, parental DLD1 cells were engineered to express the HA-tagged OMP25 protein or the Myc-tagged OMP25 protein (Addgene, 83355), 30 million cells were washed and dounce homogenized in KPBS (136 mM KCl and 10 mM KH2PO4, pH 7.25). The homogenate was then cleared by centrifugation and the supernatant was applied to anti-HA beads (Thermo Fisher, 88837) and incubated with rotation for 3.5 min. The resultant beads were washed with KPBS and were eluted for different downstream analyses: Triton X-100 lysis buffer (50 mM Tris-HCl, pH 7.4, 150 mM NaCl, 1 mM EDTA, 1% (vol/vol) Triton X-100, and protease inhibitors) was used to elute mitochondria for Western blot analysis; 80:20 methanol:water containing 1.5 μM ^13C^15N labeled amino acids (Cambridge Isotope Laboratories, MSK-A2-1.2) was used to elute mitochondria for liquid chromatography-mass spectrometry (LC-MS) analysis; 80:20 methanol:water was used to elute mitochondria for NAD(H) and NADP(H) measurements; glutathione lysis buffer (see below) was used to elute mitochondria for GSH measurements.
For negative ionization mode liquid chromatography separation was achieved on an iHILIC-(P) Classic column (100 mm×2.1 mm, 5 μm particle size, HILICON). Mobile phase A was 10 mM ammonium bicarbonate in 10:90 acetonitrile:water with 5 μM medronic acid, pH 9.4 and mobile phase B was 10 mM ammonium bicarbonate in 90:10 acetonitrile:water with 5 μM medronic acid, pH 9.4). The gradient was 0 min, 95% B; 15 min, 50% B; 18 min, 50% B; 19 min, 95% B; 19.10 min, 95% B; 25.5 min, 95% B; 2 mins posttime. Other LC parameters were: flow rate: 200 μL/min; column temperature: 40° C., and injection volume was 2 μL. MS parameters were: gas temp: 300° C.; gas flow: 10 L/min; nebulizer pressure: 40 psig; sheath gas temp: 350° C.; sheath gas flow: 12 L/min; VCap: 3,000 V; fragmentor: 125 V. Data were acquired from m/z 50-1700 with active reference masses correction (m/z: 121.05087 and 922.00980 (positive mode) or m/z: 119.03632 and 980.01638 (negative mode). Peak identification and integration were done based on in-house exact mass and retention time library built from commercial standards. Data analysis and natural isotope abundance correction were performed using MassHunter Profinder software v10.0 (Agilent Technologies).
For metabolomic profiling of the Mito-IP samples, dried extracts were resuspended in 30 μL of 60:40 acetonitrile:water and an additional 7.5 μL of 100% methanol added to prevent phase separation. Samples were vortexed, incubated on ice for 20 min, and clarified by centrifugation at 20,000 g for 20 min at 4° C. LC-MS analysis was using the iHILIC-(P) Classic negative method described with 6545 Q-TOF mass spectrometer (Agilent Technologies). Whole cell extracts were analyzed in parallel and data analysis was performed using MassHunter Profinder v10.0 software (Agilent Technologies). Metabolite identifications reported were based on either (a) exact mass and retention times matched to authentic standards (denoted as RT in Tables 1A-1G) or (b) exact mass and MS2 spectra match using SIRIUS software (denoted as MS2 in Tables 1A-1G) (https://bio.informatik.uni-jena.de/software/sirius/). Metabolites were considered to be mitochondrial if the average peak area measured in anti-HA Mito-IPs from HA-tagged OMP25 cells was at least 1.5-fold more than in anti-HA Mito-IPs from the control cell expressing Myc-tagged OMP25 (scc Tables 1A-1G; FC>1.5 for [OMP25HA sgCtrl MitoIP vs. OMP25Myc MitoIP]).

## C/C=C(\C)[C@H](O)[C@H](C)/C=C(C)/C=C/C/C(C)=C/Cc1nc(OC)c(OC)c(O)c1C [piericidin]
  2-aminoadipate: 146679 and 129247 and 159230
  2-hydroxyglutarate: 3675897 and 3670344 and 3586833
  3-methyl-2-oxovalerate: 3696272 and 2980891 and 4249362
  4-acetylbutyrate: 10363291 and 8533694 and 12130178
  4-hydroxyproline: 522424 and 441928 and 551397
  5-methylthioadenosine (MTA): 257749 and 400467 and 367942
  5-oxoproline: 16393034 and 14068076 and 17132083
  6-phosphogluconate: 65481 and 57701 and 58966
  N6-(delta-isopentenyl)-adenine: 293077 and 229998 and 281738
  N-acetyl-beta-alanine: 1022765 and 956905 and 1036571
  N-acetylalanine: 238161 and 214277 and 230562
  N-acetylaspartate (NAA): 12095956 and 11050203 and 12351863
  N-acetylglucosamine 6-phosphate: 428986 and 380372 and 454385
  N-acetylglutamate: 987898 and 1549149 and 871723
  N-acetylglycine: 43846 and 40358 and 41154
  N-acetylmethionine: 462515 and 426811 and 428397
  N-acetylserine: 5896001 and 5058414 and 6358391
  N-acetyltaurine: 1110210 and 1084752 and 1148548
  N-acetylthreonine: 1380430 and 1226851 and 1295989
  UDP-N-acetylglucosamine: 4639411 and 4238311 and 4998970
  UDP-glucuronate: 1027925 and 858275 and 1243921
  aconitate: 346582 and 453318 and 406006
  adenine: 481304 and 768689 and 708555
  adenosine 5′-diphosphate (ADP): 1129524 and 1189412 and 1083190
  adenosine 5′-monophosphate (AMP): 646021 and 715531 and 648428
  adenosine 5′-triphosphate (ATP): 2352445 and 2990040 and 2388618
  alanine: 1663860 and 1344230 and 1765231
  alanylhistidine: 22199 and 41823 and 30446
  allantoin: 3703951 and 3225148 and 4031072
  arginine: 1086834 and 998509 and 1348136
  asparagine: 2068551 and 1580346 and 2240202
  aspartate: 1717174 and 1947525 and 1819639
  beta-glycerophosphoric acid: 850446 and 705915 and 880253
  betaine: 161649 and 112014 and 159770
  caproate: 114886 and 109032 and 115791
  carbamoyl aspartate: 3763133 and 3469742 and 3815379
  carnitine: 43283 and 41086 and 45131
  citrate: 9028971 and 10970194 and 9594217
  creatine: 549841 and 451406 and 565679
  creatine phosphate: 394087 and 351223 and 410441
  creatinine: 277361 and 240499 and 323168
  cytidine 5′-triphosphate (CTP): 81066 and 75474 and 92586
  dihydroxyacetone phosphate (DHAP): 1214605 and 1228567 and 1670800
  dodecanoate: 303807 and 282352 and 360172
  flavin adenine dinucleotide (FAD): 115513 and 108031 and 137050
  folate: 99228 and 128177 and 134416
  formylpyruvate: 1414077 and 902945 and 1059691
  fructose 1,6-biphosphate: 1321982 and 1216851 and 1680580
  fructose 6′-phosphate: 57127 and 49316 and 50145
  fumarate: 357661 and 412548 and 377283
  galactitol: 918739 and 708477 and 1199966
  galactonic acid: 2240293 and 1677985 and 2390572
  gamma-aminobutyrate (GABA): 3496195 and 3622488 and 3524195
  glucosamine: 164826 and 119694 and 178113
  glucose 6′-phosphate: 755029 and 621609 and 531377
  glutamate: 126622339 and 129663305 and 129294077
  glutamine: 58464656 and 69652329 and 62470821
  glyceraldehyde 3-phosphate: 3045295 and 3098709 and 4229751
  glycerophosphorylcholine (GPC): 210330 and 183098 and 225230
  glycine: 146868 and 137614 and 144892
  glycylaspartate: 205091 and 201360 and 226481
  guanosine 5′-diphosphate (GDP): 69660 and 69853 and 38046
  guanosine 5′-diphosphoglucose: 33192 and 34147 and 38993
  guanosine 5′-monophosphate (GMP): 44633 and 51573 and 51777
  guanosine 5′-triphosphate (GTP): 171526 and 214847 and 133658
  histidine: 15027640 and 12343272 and 17476456
  hydroxyphenyllactate: 1478092 and 1166698 and 1355443
  inosine 5′-monophosphate (IMP): 22897 and 17939 and 22222
  isoleucine: 4513788 and 3853543 and 5003963
  lactate: 105521436 and 97172905 and 114401680
  leucine: 7669096 and 6479727 and 8479119
  lysine: 195097 and 149255 and 233140
  malate: 12653099 and 10480180 and 12542946
  methionine: 1041135 and 894784 and 1078995
  methylthioribulose 1-phosphate: 21298086 and 18010540 and 22620900
  nicotinamide: 39081 and 33023 and 41574
  nicotinamide adenine dinucleotide (NAD+): 7875605 and 8688241 and 9053967
  nicotinamide adenine dinucleotide phosphate (NADP+): 15380 and 19291 and 12614
  nicotinamide adenine dinucleotide, reduced (NADH): 455322 and 465048 and 452884
  oleate: 460639 and 248285 and 328228
  palmitate: 20015231 and 20994808 and 24605738
  pantothenate: 8937050 and 7961239 and 9124782
  pentadecanoic acid: 302982 and 182808 and 229103
  phenylacetate: 87967 and 87598 and 109383
  phenylacetylglycine: 1781914 and 1641866 and 2033368
  phenylalanine: 6841254 and 5972052 and 7346184
  phosphocholine: 1734241 and 1590770 and 1746457
  phosphoenolpyruvate (PEP): 217348 and 206448 and 247608
  proline: 4018244 and 3303744 and 4136919
  ribose 5′-phosphate: 30487 and 39389 and 44236
  serine: 1972729 and 1697021 and 2115421
  serinylaspartate: 80143 and 82279 and 87822
  sn-glycero-3-phosphoethanolamine: 3947102 and 4703023 and 3861169
  stearate: 10555350 and 11041062 and 14072247
  succinate: 468012 and 552589 and 622074
  taurine: 79062900 and 54111662 and 81152564
  threonate: 4663562 and 3938483 and 4644285
  threonine: 13508533 and 12463455 and 14159756
  thymidine 5′-diphospho-alpha-D-glucose: 14725 and 13909 and 14870
  thymine: 24681 and 21055 and 27340
  tryptophan: 747292 and 595893 and 756562
  tyrosine: 3847092 and 3576189 and 3918008
  uridine 5′-diphosphate (UDP): 175584 and 155688 and 210038
  uridine 5′-monophosphate (UMP): 631970 and 347896 and 460624
  uridine 5′-triphosphate (UTP): 3135652 and 2793092 and 3584193
  valine: 1041408 and 903609 and 1081229
